# Data as given in PubChem BioAssay AID1963867 (Molecular Pharmacology Branch, DTP, NCI, 2024).
# Test system: KRAS-mutant PDC tumor spheroid with HUVEC/MSC, viability
# Assay: Anticancer human tumor 327498-153-R-J2-PDC patient-derived uterine carcinosarcoma cell line growth inhibition [KRAS2]
# Conditions: for viability, T/C: stronger effect = lower value
# From the text: Multicellular complex tumor spheroid response to RAS pathway inhibitors in combination with a targeted agents in patient-derived cell lines with oncogenic KRAS variants from multiple cancer types
# A high-throughput screen of multi-cell type tumor spheroids was designed to identify active combinations of targeted small molecules and KRAS pathway inhibitors. Complex spheroids include a stromal component modeled by human endothelial cells (HUVEC) and fibroblasts modeled by human mesenchymal stem cells (MSCs). The concentration ranges selected for each drug and investigational agent were based upon clinically achievable concentrations if the clinical Cmax of the agent was known.
# Compounds. The drugs and investigational agents: BI-3406 (NSC825286), BAY-293 (NSC824723), batoprotafib (TNO155; NSC825523), sotorasib (AMG 510; NSC818433), MRTX1257 (NSC819558), elimusertib (BAY 1895344; NSC800525), molibresib (GSK525762; NSC774829), temuterkib (LY3214996; NSC803410), venetoclax (NSC766270), alisertib (NSC759677), olaparib (NSC753686), talazoparib (NSC767125), erdafitinib (NSC781556), ipatasertib (NSC767898), cabozantinib (NSC761068), nintedanib (NSC756659), abemaciclib (NSC768073), docetaxel (NSC628503), trametinib (NSC758246), and sapanisertib (NSC764658) were obtained from the National Cancer Institute (NCI) Developmental Therapeutics Program Chemical Repository. The FDA-approved anticancer drug set is available from the Developmental Therapeutics Program. […] The stock solutions were prepared in dimethyl sulfoxide (DMSO, Sigma-Aldrich, St. Louis, MO, cat. D2650) at 800-fold the tested concentration and stored at -70 degrees C prior to their use. All drugs and investigational agents were tested over a range starting from a high concentration at or near the clinical Cmax and decreasing in half-log increments. If the clinical Cmax for an agent had not been determined, the highest concentration tested was 10 microM.
# Cell Culture. All cells were maintained in an incubator at 37 degrees C and 5% CO2 with 95% humidity. The PDC lines were cultured according to standard operating procedures established by the NCI PDMR (https://pdmr.cancer.gov/sops/default.htm). Briefly, all PDCs were thawed and cultured in Matrigel-coated flasks prepared with a working solution of 1X Ham's F-12 nutrient mix, without supplementation (Invitrogen, Waltham, MA, cat. 11765054), 100 U/mL penicillin-streptomycin (Invitrogen, cat. 15140122), and 2.5% Matrigel (Corning Inc., Corning, NY, cat. 354248) for the first three passages. All PDCs were cultured in complete DMEM/F-12 media containing advanced DMEM/F-12 (Invitrogen, cat. 12634028), 4.9% defined fetal bovine serum, heat inactivated (HyClone Laboratories Inc., Logan, UT, cat. SH30070.03HI), 389 ng/mL hydrocortisone (Sigma-Aldrich, cat. H4001), 9.7 ng/mL human EGF recombinant protein (Invitrogen, cat. PHG0313), 23.4 microg/mL adenine (Sigma-Aldrich, cat. A2786), 97.3 U/mL penicillin-streptomycin (Invitrogen, cat. 15140122), 1.9 mM L-glutamine (Invitrogen, cat. 25030081), and 9.7 microM Y-27632 dihydrochloride (Tocris Bioscience, Bristol, United Kingdom, cat. 1254). The PDCs were cultured in complete DMEM/F12 media without 9.7 microM Y-27632 dihydrochloride for at least two passages prior to the screen. The established cell line HOP-62 was cultured in RPMI 1640 medium, HEPES (Invitrogen, cat. 22400105) with 10% defined fetal bovine serum (HyClone Laboratories Inc., cat. SH30070.03) and 2 mM L-glutamine (Invitrogen, cat. 25030081). The pooled donor HUVEC were cultured in endothelial cell growth medium 2 (PromoCell, Heidelberg, Germany, cat. C-22011) and the hMSC were cultured in mesenchymal stem cell growth medium 2 (PromoCell, cat. C-28009). For all experiments, HUVEC and hMSC were used at passages </=5, while the malignant cell lines were used at passages </=15. […]
# [1] = curve of first compound, second compound 0.1 µM
# [2] = curve of first compound, second compound 0.316 µM
# [3] = curve of first compound, second compound 1 µM
# [4] = curve of first compound, second compound 3.16 µM
# [5] = curve of first compound, second compound 10 µM
# [6] = second compound 0.1 µM, first compound 0.000316 µM
# [7] = second compound 0.1 µM, first compound 0.001 µM
# [8] = second compound 0.1 µM, first compound 0.00316 µM
# [9] = second compound 0.1 µM, first compound 0.01 µM
# [10] = second compound 0.1 µM, first compound 0.0316 µM
# [11] = second compound 0.1 µM, first compound 0.1 µM
# [12] = second compound 0.316 µM, first compound 0.000316 µM
# [13] = second compound 0.316 µM, first compound 0.001 µM
# [14] = second compound 0.316 µM, first compound 0.00316 µM
# [15] = second compound 0.316 µM, first compound 0.01 µM
# [16] = second compound 0.316 µM, first compound 0.0316 µM
# [17] = second compound 0.316 µM, first compound 0.1 µM
# [18] = second compound 1 µM, first compound 0.000316 µM
# [19] = second compound 1 µM, first compound 0.001 µM
# [20] = second compound 1 µM, first compound 0.00316 µM
# [21] = second compound 1 µM, first compound 0.01 µM
# [22] = second compound 1 µM, first compound 0.0316 µM
# [23] = second compound 1 µM, first compound 0.1 µM
# [24] = second compound 3.16 µM, first compound 0.000316 µM
# [25] = second compound 3.16 µM, first compound 0.001 µM
# [26] = second compound 3.16 µM, first compound 0.00316 µM
# [27] = second compound 3.16 µM, first compound 0.01 µM
# [28] = second compound 3.16 µM, first compound 0.0316 µM
# [29] = second compound 3.16 µM, first compound 0.1 µM
# [30] = second compound 10 µM, first compound 0.000316 µM
# [31] = second compound 10 µM, first compound 0.001 µM
# [32] = second compound 10 µM, first compound 0.00316 µM
# [33] = second compound 10 µM, first compound 0.01 µM
# [34] = second compound 10 µM, first compound 0.0316 µM
# [35] = second compound 10 µM, first compound 0.1 µM
# 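Further: spheroids exposed to agents for seven days before reading.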
# 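Wherever viability, T/C is given: 100% = DMSO vehicle wells so lower means fewer viable cells.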
structure (smiles),measurement,setting,value
CC(C)n1nc(-c2ccc3oc(N)nc3c2)c2c(N)ncnc21 + CNCc1ccccc1-c1csc(C(C)Nc2nc(C)nc3cc(OC)c(OC)cc23)c1,IC50,[1],4.87 nM
same,IC50,[2],4.21 nM
same,IC50,[3],2.3 nM
same,IC50,[4],< 0.316 nM
same,IC50,[5],< 0.316 nM
same,"viability, T/C",[6],87.6%
same,"viability, T/C",[7],80.3%
same,"viability, T/C",[8],59.9%
same,"viability, T/C",[9],33.4%
same,"viability, T/C",[10],13.8%
same,"viability, T/C",[11],7.32%
same,"viability, T/C",[12],76.8%
same,"viability, T/C",[13],73.2%
same,"viability, T/C",[14],56%
same,"viability, T/C",[15],30.4%
same,"viability, T/C",[16],10.3%
same,"viability, T/C",[17],6.25%
same,"viability, T/C",[18],68.2%
same,"viability, T/C",[19],63.9%
same,"viability, T/C",[20],43.4%
same,"viability, T/C",[21],25.6%
same,"viability, T/C",[22],7.89%
same,"viability, T/C",[23],4.25%
same,"viability, T/C",[24],20.1%
same,"viability, T/C",[25],0.14%
same,"viability, T/C",[26],1.09%
same,"viability, T/C",[27],0.2%
same,"viability, T/C",[28],0.04%
same,"viability, T/C",[29],1.36%
same,"viability, T/C",[30],0.49%
same,"viability, T/C",[31],0.14%
same,"viability, T/C",[32],0.93%
same,"viability, T/C",[33],0.51%
same,"viability, T/C",[34],0.24%
same,"viability, T/C",[35],0.39%
COc1cc2nccc(Oc3ccc(NC(=O)C4(C(=O)Nc5ccc(F)cc5)CC4)cc3)c2cc1OC + COc1cc2nc(C)nc(NC(C)c3cc(N)cc(C(F)(F)F)c3)c2cc1OC1CCOC1,IC50,[1],689 nM
same,IC50,[2],534 nM
same,IC50,[3],379 nM
same,IC50,[4],385 nM
same,IC50,[5],< 31.6 nM
same,"viability, T/C",[10],73.8%
same,"viability, T/C",[11],82.3%
same,"viability, T/C","second compound 0.1 µM, first compound 0.316 µM",74.6%
same,"viability, T/C","second compound 0.1 µM, first compound 1 µM",26.7%
same,"viability, T/C","second compound 0.1 µM, first compound 3.16 µM",0.88%
same,"viability, T/C","second compound 0.1 µM, first compound 10 µM",87%
same,"viability, T/C",[16],68.3%
same,"viability, T/C",[17],60.8%
same,"viability, T/C","second compound 0.316 µM, first compound 0.316 µM",64.5%
same,"viability, T/C","second compound 0.316 µM, first compound 1 µM",28.7%
same,"viability, T/C","second compound 0.316 µM, first compound 3.16 µM",0.85%
same,"viability, T/C","second compound 0.316 µM, first compound 10 µM",68.5%
same,"viability, T/C",[22],62.9%
same,"viability, T/C",[23],54%
same,"viability, T/C","second compound 1 µM, first compound 0.316 µM",53.9%
same,"viability, T/C","second compound 1 µM, first compound 1 µM",22.9%
same,"viability, T/C","second compound 1 µM, first compound 3.16 µM",0.96%
same,"viability, T/C","second compound 1 µM, first compound 10 µM",63.1%
same,"viability, T/C",[28],62.5%
same,"viability, T/C",[29],57.3%
same,"viability, T/C","second compound 3.16 µM, first compound 0.316 µM",54.2%
same,"viability, T/C","second compound 3.16 µM, first compound 1 µM",22.1%
same,"viability, T/C","second compound 3.16 µM, first compound 3.16 µM",0.52%
same,"viability, T/C","second compound 3.16 µM, first compound 10 µM",67.3%
same,"viability, T/C",[34],50.6%
same,"viability, T/C",[35],44.8%
same,"viability, T/C","second compound 10 µM, first compound 0.316 µM",40.5%
same,"viability, T/C","second compound 10 µM, first compound 1 µM",12.1%
same,"viability, T/C","second compound 10 µM, first compound 3.16 µM",0.37%
same,"viability, T/C","second compound 10 µM, first compound 10 µM",57.9%
CC(C)n1nc(-c2ccc3oc(N)nc3c2)c2c(N)ncnc21 + C=CC(=O)N1CCN(c2nc(=O)n(-c3c(C)ccnc3C(C)C)c3nc(-c4c(O)cccc4F)c(F)cc23)C(C)C1,IC50,[1],0.576 nM
same,IC50,[2],< 0.316 nM
same,IC50,[3],< 0.316 nM
same,IC50,[4],< 0.316 nM
same,IC50,[5],< 0.316 nM
same,"viability, T/C",[6],57.6%
same,"viability, T/C",[7],40.7%
same,"viability, T/C",[8],34.6%
same,"viability, T/C",[9],17.6%
same,"viability, T/C",[10],8.67%
same,"viability, T/C",[11],5.6%
same,"viability, T/C",[12],45.4%
same,"viability, T/C",[13],41.2%
same,"viability, T/C",[14],26.1%
same,"viability, T/C",[15],14.3%
same,"viability, T/C",[16],9.71%
same,"viability, T/C",[17],5.39%
same,"viability, T/C",[18],49.5%
same,"viability, T/C",[19],38%
same,"viability, T/C",[20],23.5%
same,"viability, T/C",[21],14.4%
same,"viability, T/C",[22],7.05%
same,"viability, T/C",[23],5.38%
same,"viability, T/C",[24],42.1%
same,"viability, T/C",[25],33.2%
same,"viability, T/C",[26],21.5%
same,"viability, T/C",[27],13.9%
same,"viability, T/C",[28],6.92%
same,"viability, T/C",[29],6.19%
same,"viability, T/C",[30],31.1%
same,"viability, T/C",[31],25.3%
same,"viability, T/C",[32],19.1%
same,"viability, T/C",[33],8.99%
same,"viability, T/C",[34],5.88%
same,"viability, T/C",[35],5.69%
CN(C)C/C=C/C(=O)Nc1cc2c(Nc3ccc(F)c(Cl)c3)ncnc2cc1O[C@H]1CCOC1,"viability, T/C",compound 0.000316 µM,99.1% [middle of 5 runs]
same,"viability, T/C",compound 0.001 µM,97% [middle of 5 runs]
same,"viability, T/C",compound 0.00316 µM,95.1% [middle of 5 runs]
same,"viability, T/C",compound 0.01 µM,104% [middle of 5 runs]
same,"viability, T/C",compound 0.0316 µM,100% [middle of 5 runs]
same,"viability, T/C",compound 0.1 µM,90.8% [middle of 5 runs]
same,IC50,curve of compound,> 100 nM
